In PMC12560828, “Chemical structure drives developmental toxicity of alkyl-substituted naphthalenes in zebrafish” (Environment international, 2025):
Where “and” joins values, the source holds several entries; their conditions need not be identical. Equal entries are not always repeated.

Tests used:
zebrafish embryos = test: Body burden measurement (GC-MS/MS) and concentration uptake ratio, vial exposure; format: in vivo, Danio rerio; conditions: 20 μM exposure; for measured concentration in embryo extract: 32 pooled embryos, 0.5 mL extract, single replicates
Method: Body burden was measured for exposure to five chemicals at two timepoints: 24 and 48 hpf. […] The exposure concentration was chosen as it was the maximum possible concentration that ensured enough viable animals for collection at 48 hpf and allowed direct comparison of chemical uptake at the same exposure concentration.
Chemicals were exposed at 20 μM following the exposure procedure detailed in section 1.3, 24 vials per chemical. At 24 hpf, embryos were pooled in groups of 32 embryos (combining embryos from 4 vials) into 1.5 mL polypropylene RINO-safe lock tubes (n = 3 per chemical treatment, n = 3 per control). Tubes were briefly placed on ice to reduce embryo movement (<1 min); the remaining medium was removed; the tube was then flash frozen in liquid nitrogen and stored at −20 °C until extraction. Embryos in the remaining vials were plated as previously described in section 1.3 until collection at 48 hpf following the same procedure as 24 hpf collections (n = 3 per chemical treatment, n = 1 control).
Tissue extraction was performed as previously reported ([Rude et al., 2025]). Each sample was spiked with 25 μL internal standard in ethyl acetate and 100 μL of 1 mm glass beads (Next Advance, Troy, NY United States) were added to the RINO-safe lock tubes containing thawed tissue samples and left on ice for 10 min 250 mg of Na2SO4 and 200 μL of ethyl acetate were added to each tube and vortexed. Tubes were homogenized at speed 8 for 6 min in a Bullet Blender (Next Advance, Troy, NY, United States). 300 μL of ethyl acetate was added to each tube and the homogenization step was repeated until no pieces of non-homogenized fish tissue remained. Samples were then centrifuged for 10 min at 4 °C, 1600g. Sample supernatant (0.5 mL) was collected into amber vials and stored at 4 °C until chemical analysis.
Samples were analyzed for quantitation and identification of 161 PAHs. The method was performed with an Agilent 7890 gas chromatograph (GC), with a 7000C triple quadrupole mass spectrometer (MS/MS) using an Agilent J&W PAH select (30 m × 250 μm × 0.15 μm GC column). Calibration for each analyte utilized at least a 4-point (range: 4–7, median 6 points, n = 161) curve with R^2 ≥ 0.99. Specific instrument conditions were modified from [Anderson et al. (2015)] and are detailed in Table S3. GC–MS/MS data was analyzed using MassHunter Quantitative Analysis v.B.06.00 SP1 build 6.0.388.1 software (Agilent Corp. Wilmington,DE) ([Anderson et al., 2015]). Dynamic muti-reaction monitoring mode was used during analyses, and all PAHs were identified using analytical standards obtained from multiple sources (Table S1). Collison energies were optimized for each individual unsubstituted PAH, alkylation series (C1, C2, etc.), and when possible, specific alkylation group (i.e. methyl, ethyl, etc.).
Body burden concentrations based on average embryo wet weight at each timepoint were determined by the equation below. Total measured chemical was calculated from ng/mL concentrations times sample volume (0.5 mL). Bodyburdennmol/mgbw=total measured chemicalnmol/number of fish32×average body weightmg
Average body weights at 24 hpf and 48 hpf were assumed to be 0.31 mg and 0.26 mg, respectively as determined previously ([Rericha et al., 2024]). Statistical analysis to compare time points within chemicals was performed using a two-sided Student’s t-test (p-value ≤ 0.05). An ANOVA with a follow-up Dunn’s test was used to compare body burden between chemicals at 24 hpf (p-value ≤ 0.05). Body burden concentrations at 24 hpf were compared to the estimated percent effect of each measured chemical at the exposure concentration used for body burden analysis (20 μM). These estimates were made using the fitted concentration-response curves previously described in section 2.3.2.2.
Concentration uptake ratios between vial exposures and 96-well plate exposures were compared using a two-sided Student’s t-test, p-values ≤ 0.05 were considered significant. […]

[1] = tested on: zebrafish embryos, gene expression at 48 hpf; test: Targeted transcriptomics (TempO-Seq S1500+ zebrafish panel), differential expression; format: in vivo, Danio rerio; conditions: 20 μM
Method: Targeted transcriptomics were performed using the Biospyder™ TempO-Seq™ 96-well plate platform. This platform used detector oligos for a gene set of 3112 probes selected through data driven approaches and expert curation ([Balik-Meisner et al., 2019]). The targeted transcriptomics approach was selected to maximize the number of chemicals that could be included in the analysis while managing cost and data analysis requirements. Targeted transcriptomics were limited to 96 samples, three chemicals without morphological effects were excluded from the analysis to ensure n = 4 per chemical and n = 6 controls, excluded chemicals are indicated in SI-T3.
A single exposure concentration of 20 μM was chosen as the maximum possible concentration to elicit a biological response that also ensured enough viable animals for RNA collection for every chemical. The same concentration per chemical was chosen as opposed to a phenotypically anchored concentration due to variability in 48 hpf survival across chemicals at the same 120 hpf percent effect and to allow for a direct comparison of chemical potency and transcriptomic response. 48 hpf was chosen to ensure the measurement of transcriptomic responses prior to the emergence of observable phenotypic effects. This timepoint has been used extensively and enhanced the ability to compare our results across datasets. Exposure was conducted over two days, chemicals were split into day groups by numerical order of randomly generated internal labels, 11 chemicals and control each day, n = 48 embryos across six vials per treatment. Exposure was conducted as previously described in section 2.3. At 48 hpf embryos were collected for RNA extraction. Embryos from two exposure vials were kept for morphological effect assessments which were as expected based on screening results. From the remaining wells, six phenotypically normal embryos were collected and pooled in their vial groups into 1.5 mL Eppendorf tubes, placed on ice (~30 sec), excess medium was removed, placed back on ice (~30 sec), and 200 μL RNA shield was added. […] of n = 6 pooled embryos were collected from each treatment.
RNA was extracted from exposure groups on day one and day two. 100 μL of lysis buffer was added to each tube containing pooled embryo samples and 200 μL of RNA shield, the full contents of the tube were then transferred to the homogenization plate (2 mL deep 96-well plate pre-filled with 400 μL 1 mm zirconium beads and 500 μL of lysis buffer). The plate was homogenized for 1.5 min using the Mini-BeadBeater 96 (BioSpec Products, Bartlesville, OK, United States) and centrifuged for five min at 3000 rcf. 550 μL of the supernatant was distributed over two plates, each pre-filled with 275 μL of ethanol. RNA extraction was performed using the KingFisher Apex System (ThermoFisher Scientific, Waltham, MA, United States) and Quick-RNA Magbead kit (Zymo Research Corporation, Irvine, CA, Untied States). Briefly, this automated process uses Mag beads to collect RNA from the sample, after a series of washes and treatment with DNase the RNA is eluted in 50 μL of ultra-pure water. RNA quality was assessed using the 4150 TapeStation System (Agilent, Santa Clara, CA, United States). All samples used had RNA integrity number (RIN) scores >9.8. RNA concentration was determined using Quant-iT RNA Reagent and assay kit and Varioskan ALF multi-mode plate reader (ThermoFisher Scientific, Waltham, MA, United States) in duplicate, samples with high variability (coefficient of variance (CV) > 10) between reads were repeated in triplicate. The average of the quantification reads was used for RNA concentration normalization. […] All 94 samples were normalized using ultra-pure water to the lowest concentration sample − 14.9 ng/μL. […]

Cc1ccc2cccc(C)c2c1 [1,7-dimethylnaphthalene]
body burden concentration (zebrafish embryos; 24 hpf): highest concentration | measured concentration in embryo extract (zebrafish embryos; 24 hpf): 33000 ng/mL and 33300 ng/mL | measured concentration in embryo extract (zebrafish embryos; 48 hpf): 11600 ng/mL and 10100 ng/mL | number of differentially expressed genes (DEGs) ([1]; p-value ≤ 0.05 and log2FC ≥ |1|, result in words): substantially more DEGs than the rest of the chemicals tested | nt5dc2 expression ([1]; result in words): decreased expression | logFC CCN1 ([1]; vs global control (SI-T13)): -1.157 | logFC FGFBP2B ([1]; vs global control (SI-T13)): -1.676 | logFC MFAP2 ([1]; vs global control (SI-T13)): -0.751 | logFC PDE6GB ([1]; vs global control (SI-T13)): -0.7875 | logFC PLOD1A ([1]; vs global control (SI-T13)): -3.2359

Cc1ccc2ccc(C)cc2c1 [2,7-dimethylnaphthalene]
measured concentration in embryo extract (zebrafish embryos; 24 hpf): 19900 ng/mL | measured concentration in embryo extract (zebrafish embryos; 48 hpf): 8080 ng/mL and 7630 ng/mL | nt5dc2 expression ([1]; result in words): decreased expression

Cc1cccc2c(C)cccc12 [1,5-dimethylnaphthalene]
measured concentration in embryo extract (zebrafish embryos; 24 hpf): 28000 ng/mL and 23900 ng/mL | measured concentration in embryo extract (zebrafish embryos; 48 hpf): 9300 ng/mL and 7200 ng/mL

CCc1ccc2ccccc2c1 [2-ethylnaphthalene]
nt5dc2 expression ([1]; result in words): decreased expression

Cc1cc(C)c2c(C)cccc2c1 [2,4,5-trimethylnaphthalene]
percent reduction in body burden between 24 and 48 hpf (zebrafish embryos): 46% | measured concentration in embryo extract (zebrafish embryos; 24 hpf): 9270 ng/mL and 6860 ng/mL | measured concentration in embryo extract (zebrafish embryos; 48 hpf): 4950 ng/mL and 4550 ng/mL and 2080 ng/mL
